# Test results from PMC4893628, “Chalcone-based Selective Inhibitors of a C4 Plant Key Enzyme as Novel Potential Herbicides” (Scientific Reports, 2016).
# Read-outs that look alike come from different tables or passages of the source.
# Legend:
# F. trinervia PEPC = target: T1, F. trinervia PEPC (Flaveria trinervia, UniProt P30694); experiment: biochemical; format: biochemical; details: C4 PEPC; read-out: IC50 F. trinervia PEPC
# T1 construct: the full-length ppcA gene of PEPC from F. trinervia (EMBL-Bank X61304); made in house; host or cells: Escherichia coli BL21(DE3)
# T1 sequence (P30694 1-966): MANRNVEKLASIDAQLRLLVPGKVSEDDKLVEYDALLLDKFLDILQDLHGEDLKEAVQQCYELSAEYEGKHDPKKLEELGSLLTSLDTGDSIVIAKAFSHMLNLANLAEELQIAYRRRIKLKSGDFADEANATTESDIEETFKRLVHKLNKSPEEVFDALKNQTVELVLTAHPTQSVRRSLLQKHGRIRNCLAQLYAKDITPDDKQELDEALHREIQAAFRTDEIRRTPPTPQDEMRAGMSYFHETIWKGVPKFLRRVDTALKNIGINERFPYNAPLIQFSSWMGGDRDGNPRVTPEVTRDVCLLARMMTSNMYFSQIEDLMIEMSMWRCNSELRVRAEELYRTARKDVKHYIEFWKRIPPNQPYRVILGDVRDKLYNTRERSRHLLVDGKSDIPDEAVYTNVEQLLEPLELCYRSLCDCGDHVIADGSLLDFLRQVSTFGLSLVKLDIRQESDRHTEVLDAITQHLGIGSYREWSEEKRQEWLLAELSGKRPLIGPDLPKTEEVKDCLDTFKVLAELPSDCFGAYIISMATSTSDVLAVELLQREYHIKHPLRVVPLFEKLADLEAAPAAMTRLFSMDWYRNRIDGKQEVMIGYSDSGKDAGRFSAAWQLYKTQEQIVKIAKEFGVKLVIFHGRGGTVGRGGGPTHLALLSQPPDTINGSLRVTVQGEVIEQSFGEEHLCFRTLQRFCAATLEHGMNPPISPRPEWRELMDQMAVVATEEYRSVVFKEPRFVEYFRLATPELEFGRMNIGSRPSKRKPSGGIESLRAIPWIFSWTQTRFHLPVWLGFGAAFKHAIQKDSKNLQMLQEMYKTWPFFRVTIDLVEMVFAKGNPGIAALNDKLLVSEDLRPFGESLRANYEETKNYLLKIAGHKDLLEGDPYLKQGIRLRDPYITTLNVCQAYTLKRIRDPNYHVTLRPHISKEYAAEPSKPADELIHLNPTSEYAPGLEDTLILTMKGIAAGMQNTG
# [1] = system: Corynebacterium glutamicum ATCC13032; experiment: Bacterial growth in microscale cultivation, C. glutamicum; format: cell-based; details: for activity at 55 µM / activity at 110 µM / activity at 550 µM: Corynebacterium glutamicum; for activity at 55 µM / activity at 110 µM / activity at 550 µM / Lag Phase: relative to control
# In short: (§1)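 In a BioLector microscale system shaken at 1200 rpm, growth was tracked by backscatter at 620 nm, and final signal, growth rate (h⁻¹) and lag-phase length were scored against DMSO-only controls. Starting OD600 was 0.5, or 0.25 for B. subtilis. Inhibitors came from DMSO stocks, with trans-chalcone capped at 400 μM and 2'-hydroxychalcone at 100 μM.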
# [2] = system: Escherichia coli K-12 MG1655; experiment: Bacterial growth in microscale cultivation, E. coli; format: cell-based; details: relative to control; for activity at 55 µM / activity at 550 µM: Escherichia coli
# In short: as §1
# Bacillus subtilis 168 = experiment: Bacterial growth in microscale cultivation, B. subtilis; format: cell-based; details: for activity at 55 µM / activity at 110 µM / activity at 550 µM / Lag Phase: relative to control; for Influence on bacterial growth: highest concentration tested (10× IC50) if not stated otherwise
# In short: as §1
compound,measurement,setting,value
"O=C(/C=C/c1ccccc1)c1cc(O)ccc1O [Compound 5, 2′,5′-Dihydroxychalcone]",IC50,F. trinervia PEPC,42.1 ± 11.3 µM
same,growth,"[1]; 550 μM, minimal media",abolished growth
same,activity at 55 µM,"[1]; ATCC13032, complex medium, 55 µM, read-out: Final Backscatter",106%
same,activity at 55 µM,"[1]; ATCC13032, complex medium, 55 µM, read-out: Growth rate",107%
same,activity at 110 µM,"[1]; ATCC13032, complex medium, 110 µM, read-out: Final Backscatter",103%
same,activity at 110 µM,"[1]; ATCC13032, complex medium, 110 µM, read-out: Growth rate",110%
same,activity at 550 µM,"[1]; ATCC13032, complex medium, 550 µM, read-out: Final Backscatter",118%
same,activity at 550 µM,"[1]; ATCC13032, complex medium, 550 µM, read-out: Growth rate",79%
same,activity at 55 µM,"[1]; ATCC13032, minimal medium, 55 µM, read-out: Final Backscatter",99.7%
same,activity at 55 µM,"[1]; ATCC13032, minimal medium, 55 µM, read-out: Growth rate",86.9%
same,activity at 110 µM,"[1]; ATCC13032, minimal medium, 110 µM, read-out: Final Backscatter",101%
same,activity at 110 µM,"[1]; ATCC13032, minimal medium, 110 µM, read-out: Growth rate",79.5%
same,activity at 550 µM,"[1]; ATCC13032, minimal medium, 550 µM, read-out: Final Backscatter",18.8%
same,Influence on bacterial growth,"[1]; Minimal medium, highest concentration tested (10× IC50) if not stated otherwise","μ↓ (≥IC50), no growth (10× IC50)"
same,Lag Phase,"[1]; complex medium, 55 µM","96,2%"
same,Lag Phase,"[1]; complex medium, 110 µM","98,4%"
same,Lag Phase,"[1]; complex medium, 550 µM","120,7%"
same,Lag Phase,"[1]; minimal medium, 55 µM","114,0%"
same,Lag Phase,"[1]; minimal medium, 110 µM","133,1%"
same,activity at 55 µM,"[2]; MG1655, complex medium, 55 µM, read-out: Final Backscatter",101%
same,activity at 55 µM,"[2]; MG1655, complex medium, 55 µM, read-out: Growth rate",103%
same,activity at 550 µM,"[2]; MG1655, complex medium, 550 µM, read-out: Final Backscatter",103%
same,activity at 55 µM,"[2]; MG1655, minimal medium, 55 µM, read-out: Final Backscatter",99.1%
same,activity at 55 µM,"[2]; MG1655, minimal medium, 55 µM, read-out: Growth rate",122%
same,activity at 550 µM,"[2]; MG1655, minimal medium, 550 µM, read-out: Final Backscatter",96.4%
same,Lag Phase,"[2]; complex medium, 55 µM","103,1%"
same,Lag Phase,"[2]; complex medium, 550 µM","117,2%"
same,Lag Phase,"[2]; minimal medium, 55 µM","105,9%"
same,Lag Phase,"[2]; minimal medium, 550 µM","103,0%"
same,growth,"Bacillus subtilis 168; 550 μM, minimal media",abolished growth
same,activity at 55 µM,"Bacillus subtilis 168; Bacillus subtilis, 168, complex medium, 55 µM, read-out: Final Backscatter",96.2%
same,activity at 55 µM,"Bacillus subtilis 168; Bacillus subtilis, 168, complex medium, 55 µM, read-out: Growth rate",108%
same,activity at 110 µM,"Bacillus subtilis 168; Bacillus subtilis, 168, complex medium, 110 µM, read-out: Final Backscatter",98%
same,activity at 110 µM,"Bacillus subtilis 168; Bacillus subtilis, 168, complex medium, 110 µM, read-out: Growth rate",108%
same,activity at 550 µM,"Bacillus subtilis 168; Bacillus subtilis, 168, complex medium, 550 µM, read-out: Final Backscatter",76.3%
same,activity at 55 µM,"Bacillus subtilis 168; Bacillus subtilis, 168, minimal medium, 55 µM, read-out: Final Backscatter",96.4%
same,activity at 55 µM,"Bacillus subtilis 168; Bacillus subtilis, 168, minimal medium, 55 µM, read-out: Growth rate",107%
same,activity at 110 µM,"Bacillus subtilis 168; Bacillus subtilis, 168, minimal medium, 110 µM, read-out: Final Backscatter",102%
same,activity at 110 µM,"Bacillus subtilis 168; Bacillus subtilis, 168, minimal medium, 110 µM, read-out: Growth rate",110%
same,activity at 550 µM,"Bacillus subtilis 168; Bacillus subtilis, 168, minimal medium, 550 µM, read-out: Final Backscatter",30.5%
same,Influence on bacterial growth,Bacillus subtilis 168; Complex medium,fbs↓ lag↑
same,Influence on bacterial growth,Bacillus subtilis 168; Minimal medium,no growth (10× IC50)
same,Lag Phase,"Bacillus subtilis 168; complex medium, 55 µM","102,3%"
same,Lag Phase,"Bacillus subtilis 168; complex medium, 110 µM","109,3%"
same,Lag Phase,"Bacillus subtilis 168; complex medium, 550 µM","177,1%"
same,Lag Phase,"Bacillus subtilis 168; minimal medium, 55 µM","103,5%"
same,Lag Phase,"Bacillus subtilis 168; minimal medium, 110 µM","108,5%"
